Publication PMC6269910 (Molecules, 2013)

How the values were obtained:
[1] = target: T1, HCV NS5B RNA dependent RNA polymerase (Hepatitis C virus genotype 1b, UniProt P26663); assay: NS5B inhibition assay (primer dependent elongation, poly rA-U12); format: biochemical; details: for inhibition at 100 µM: read-out: Anti-NS5B Activity (% Inh., 100 µM)
T1 construct: HCV NS5B RNA dependent RNA polymerase activity
Experimental: The compounds 1a–e and 2a–e were reconstituted in DMSO as 50 mM stocks, and serially diluted in DMSO to obtain working stocks. Wedelolactone, a known inhibitor of HCV NS5B activity, was employed as a reference compound. Preliminary screening was carried out at 100 μM to identify a wider range of compounds.
All synthesized compounds were evaluated for their effect on HCV NS5B RNA dependent RNA polymerase activity in primer dependent elongation assays as previously described. Activity of NS5B in the absence of the inhibitor but containing an equivalent amount of DMSO (control reaction) was set at 100% and that in the presence of the inhibitor was quantified relative to this control.

[2] = system: lipid peroxidation in stomach; assay: Lipid peroxidation in stomach (TBARS); format: in vivo, mice; details: ASA 200 mg/kg
[3] = system: acetic acid-induced abdominal constriction; assay: Acetic acid-induced writhing (Koster) test; format: in vivo, mice; details: 200 mg/kg oral
Experimental: Test samples, suspended in a mixture of distilled water and 0.5% sodium carboxymethyl cellulose (CMC), were given orally to the animals. The control group animals received the same experimental handling as those of the test groups, except that the drug treatment was replaced with appropriate volumes of the dosing vehicle. […] One hour after oral administration of test sample, each mouse was injected intraperitoneally with 3% (w/v) acetic acid solution (0.1 mL/10 g, bw). Starting 5 min after the acetic acid injection, the number of muscular contractions on mice were counted for a period of 10 min. A significant reduction in the number of writhings by any treatment as compared to the number of writhings in control animals was considered a positive analgesic response. The analgesic activity was expressed as a percentage change from writhing controls. ASA was used as a reference compound and administered at 200 mg/kg.

stomach = assay: Gastric-ulcerogenic effect (ulcer score); format: in vivo, mice; details: ASA 200 mg/kg

T1 sequence (P26663 2420-3010): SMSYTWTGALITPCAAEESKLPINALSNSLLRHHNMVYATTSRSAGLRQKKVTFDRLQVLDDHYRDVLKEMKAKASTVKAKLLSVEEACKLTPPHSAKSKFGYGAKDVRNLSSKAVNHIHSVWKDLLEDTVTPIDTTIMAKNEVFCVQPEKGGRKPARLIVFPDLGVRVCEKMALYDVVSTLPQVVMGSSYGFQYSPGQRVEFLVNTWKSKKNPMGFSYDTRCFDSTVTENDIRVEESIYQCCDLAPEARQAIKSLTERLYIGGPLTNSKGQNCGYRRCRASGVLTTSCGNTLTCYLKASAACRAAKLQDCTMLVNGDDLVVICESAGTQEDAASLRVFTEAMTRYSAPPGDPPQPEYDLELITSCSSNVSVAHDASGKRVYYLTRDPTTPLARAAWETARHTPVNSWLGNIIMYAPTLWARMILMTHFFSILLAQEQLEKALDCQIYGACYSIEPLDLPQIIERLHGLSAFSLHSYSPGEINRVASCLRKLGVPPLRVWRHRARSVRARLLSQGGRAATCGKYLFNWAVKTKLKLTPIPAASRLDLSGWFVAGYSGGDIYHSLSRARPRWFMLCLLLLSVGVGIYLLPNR

SMILES | melting point | inhibition at 100 µM [1] | IC50 ([1]; dose-response, 8–12 concentrations) | Lipid peroxidation [2] | Writhing test (% inh.) [3] | Writhing test (Mean ± SEM) [3] | Ulcer score (stomach)
Cc1ccc(-c2cc(C(F)(F)F)nn2-c2ccc(S(=O)(=O)NC(=S)NCc3ccccc3)cc2)cc1 [Compound 1c, N-(Benzylcarbamothioyl)-4-[5-(4-methylphenyl)-3-(trifluoromethyl)-1H-pyrazol-1-yl] benzene-sulfonamide] | 237 to 240 °C | 82.3% | 36.2 ± 1.2 µM | – | – | – | –
Cc1ccc(-c2cc(C(F)(F)F)nn2-c2ccc(S(=O)(=O)/N=C3\SCC(=O)N3c3ccc(C(F)(F)F)cc3)cc2)cc1 [Compound 2e, N-[3-(4-Trifluoromethylphenyl)-4-oxo-1,3-thiazolidin-2-yldene)-4-[5-(4-methylphenyl)-3-(trifluoro-methyl)-1H-pyrazol-1-yl]benzenesulfonamide] | 234 to 235 °C | 9.4% | – | – | – | – | –

The next lines start with results.

melting point | inhibition at 100 µM [1] | IC50 ([1]; dose-response, 8–12 concentrations) | Lipid peroxidation [2] | SMILES | Writhing test (% inh.) [3] | Writhing test (Mean ± SEM) [3] | Ulcer score (stomach)
251 to 252 °C | 53.5% | – | – | Cc1ccc(-c2cc(C(F)(F)F)nn2-c2ccc(S(=O)(=O)NC(=S)Nc3ccccc3)cc2)cc1 [Compound 1b, N-(Phenylcarbamothioyl)-4-[5-(4-methylphenyl)-3-(trifluoromethyl)-1H-pyrazol-1-yl] benzene-sulfonamide] | – | – | –
– | – | – | 436.1 ± 17.1 nmol TBARS/g wet weight | CC(=O)Oc1ccccc1C(=O)O [ASA, acetylsalicylic acid, reference compound] | 74.7% | 4.4 ± 0.9 | 3/5
282 °C | 8.2% | – | – | CCN1C(=O)CS/C1=N\S(=O)(=O)c1ccc(-n2nc(C(F)(F)F)cc2-c2ccc(C)cc2)cc1 [Compound 2a, N-(3-Ethyl-4-oxo-1,3-thiazolidin-2-yldene)-4-[5-(4-methylphenyl)-3-(trifluoromethyl)-1H-pyrazol-1-yl]benzenesulfonamide] | – | – | –
